According to paper PMC10004634 (PLOS ONE, 2023):
Like-named read-outs stand apart in the source and are kept apart here.

Columns and labels:
Experiment in all cases: biochemical
Set-up in all cases: KINOMEscan scanMAX competition binding, DNA-tagged kinases, qPCR read-out, percent control at 300 nM
[1] = target: T1, RSK1(Kin.Dom.2-C-terminal) (Homo sapiens, UniProt Q15418)
T1 construct: gene RPS6KA1; Kin.Dom.2-C-terminal

EGFR(S752-I759del) = EGFR(S752-I759del) (Homo sapiens, UniProt P00533, DEL752-759)
MAK = MAK (Homo sapiens, UniProt P20794)
EGFR(E746-A750del) = EGFR(E746-A750del) (Homo sapiens, UniProt P00533, DEL746-750)
NEK9 = NEK9 (Homo sapiens, UniProt Q8TD19)
STK36 = STK36 (Homo sapiens, UniProt Q9NRP7)
PDPK1 = PDPK1 (Homo sapiens, UniProt O15530)
MYO3A = MYO3A (Homo sapiens, UniProt Q8NEV4)
PIK3C2B = PIK3C2B (Homo sapiens, UniProt O00750)
PKAC-alpha = target: T2, PKAC-alpha (Homo sapiens, UniProt P17612)
T2 construct: gene PRKACA

CDKL1 = CDKL1 (Homo sapiens, UniProt Q00532)
JNK2 = target: T3, JNK2 (Homo sapiens, UniProt P45984)
T3 construct: gene MAPK9

PRKCE = PRKCE (Homo sapiens, UniProt Q02156)
GRK7 = GRK7 (Homo sapiens, UniProt Q8WTQ7)
MRCKB = target: T4, MRCKB (Homo sapiens, UniProt Q9Y5S2)
T4 construct: gene CDC42BPB

NDR1 = target: T5, NDR1 (Homo sapiens, UniProt Q15208)
T5 construct: gene STK38

EPHA7 = EPHA7 (Homo sapiens, UniProt Q15375)
[2] = target: T6, ABL1(Y253F)-phosphorylated (Homo sapiens, UniProt P00519, Y253F)
T6 construct: phosphorylated

MAP4K5 = MAP4K5 (Homo sapiens, UniProt Q9Y4K4)
PAK4 = PAK4 (Homo sapiens, UniProt O96013)
TBK1 = TBK1 (Homo sapiens, UniProt Q9UHD2)
PIP5K1A = PIP5K1A (Homo sapiens, UniProt Q99755)
PIK3CA = PIK3CA (Homo sapiens, UniProt P42336)
[3] = read-out: Percent control / Tirabrutinib
[4] = read-out: Percent control / Ibrutinib
[5] = read-out: Percent control / Zanubrutinib
[6] = read-out: Percent control / Acalabrutinib

PDPK1, sequence (O15530 whole entry): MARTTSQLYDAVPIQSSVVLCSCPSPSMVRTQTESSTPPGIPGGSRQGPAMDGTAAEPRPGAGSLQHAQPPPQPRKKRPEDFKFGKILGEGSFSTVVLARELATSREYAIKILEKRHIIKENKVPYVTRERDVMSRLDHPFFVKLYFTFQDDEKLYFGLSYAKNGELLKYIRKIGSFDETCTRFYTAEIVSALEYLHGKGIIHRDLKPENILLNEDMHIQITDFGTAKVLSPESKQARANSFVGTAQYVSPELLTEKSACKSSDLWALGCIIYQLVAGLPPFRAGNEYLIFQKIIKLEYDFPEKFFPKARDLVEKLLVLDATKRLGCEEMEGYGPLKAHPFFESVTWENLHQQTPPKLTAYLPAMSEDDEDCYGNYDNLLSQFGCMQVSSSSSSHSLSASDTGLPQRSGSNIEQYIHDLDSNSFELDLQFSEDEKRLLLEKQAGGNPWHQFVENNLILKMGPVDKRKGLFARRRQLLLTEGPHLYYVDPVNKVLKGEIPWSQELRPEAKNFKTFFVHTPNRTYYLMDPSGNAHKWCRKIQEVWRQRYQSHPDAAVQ
TBK1, sequence (Q9UHD2 whole entry): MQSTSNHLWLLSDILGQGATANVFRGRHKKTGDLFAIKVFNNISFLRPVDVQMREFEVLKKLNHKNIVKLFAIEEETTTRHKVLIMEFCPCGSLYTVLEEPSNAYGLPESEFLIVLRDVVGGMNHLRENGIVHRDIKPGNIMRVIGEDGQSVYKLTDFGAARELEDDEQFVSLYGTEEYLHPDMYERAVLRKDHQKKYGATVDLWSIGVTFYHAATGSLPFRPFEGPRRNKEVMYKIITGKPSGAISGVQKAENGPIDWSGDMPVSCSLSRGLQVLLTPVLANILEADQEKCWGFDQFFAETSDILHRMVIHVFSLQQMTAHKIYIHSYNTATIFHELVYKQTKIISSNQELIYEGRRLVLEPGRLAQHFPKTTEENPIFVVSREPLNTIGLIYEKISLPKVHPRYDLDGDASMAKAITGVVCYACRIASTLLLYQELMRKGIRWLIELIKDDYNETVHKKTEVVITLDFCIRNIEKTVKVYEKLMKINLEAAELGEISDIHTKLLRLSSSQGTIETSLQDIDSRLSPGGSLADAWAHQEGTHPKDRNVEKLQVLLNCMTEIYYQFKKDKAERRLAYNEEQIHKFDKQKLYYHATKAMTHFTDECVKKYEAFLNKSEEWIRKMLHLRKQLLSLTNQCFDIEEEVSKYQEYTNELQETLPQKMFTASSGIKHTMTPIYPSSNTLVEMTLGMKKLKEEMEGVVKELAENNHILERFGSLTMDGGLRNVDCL
PAK4, sequence (O96013 whole entry): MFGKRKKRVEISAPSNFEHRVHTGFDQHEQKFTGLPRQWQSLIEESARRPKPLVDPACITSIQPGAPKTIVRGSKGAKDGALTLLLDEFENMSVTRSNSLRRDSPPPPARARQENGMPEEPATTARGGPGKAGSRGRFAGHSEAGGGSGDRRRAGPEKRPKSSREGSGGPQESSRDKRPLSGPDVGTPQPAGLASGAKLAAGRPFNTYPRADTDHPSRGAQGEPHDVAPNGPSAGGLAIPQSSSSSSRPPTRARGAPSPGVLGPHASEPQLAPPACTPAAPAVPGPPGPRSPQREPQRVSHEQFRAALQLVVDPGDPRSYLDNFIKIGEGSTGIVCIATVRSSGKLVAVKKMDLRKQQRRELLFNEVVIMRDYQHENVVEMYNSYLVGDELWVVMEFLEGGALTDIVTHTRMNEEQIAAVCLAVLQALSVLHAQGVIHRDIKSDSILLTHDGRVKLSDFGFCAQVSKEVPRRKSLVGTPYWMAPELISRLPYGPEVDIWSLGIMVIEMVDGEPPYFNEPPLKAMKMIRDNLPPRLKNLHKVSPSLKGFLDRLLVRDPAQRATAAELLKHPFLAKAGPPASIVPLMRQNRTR
T4 sequence (Q9Y5S2 whole entry): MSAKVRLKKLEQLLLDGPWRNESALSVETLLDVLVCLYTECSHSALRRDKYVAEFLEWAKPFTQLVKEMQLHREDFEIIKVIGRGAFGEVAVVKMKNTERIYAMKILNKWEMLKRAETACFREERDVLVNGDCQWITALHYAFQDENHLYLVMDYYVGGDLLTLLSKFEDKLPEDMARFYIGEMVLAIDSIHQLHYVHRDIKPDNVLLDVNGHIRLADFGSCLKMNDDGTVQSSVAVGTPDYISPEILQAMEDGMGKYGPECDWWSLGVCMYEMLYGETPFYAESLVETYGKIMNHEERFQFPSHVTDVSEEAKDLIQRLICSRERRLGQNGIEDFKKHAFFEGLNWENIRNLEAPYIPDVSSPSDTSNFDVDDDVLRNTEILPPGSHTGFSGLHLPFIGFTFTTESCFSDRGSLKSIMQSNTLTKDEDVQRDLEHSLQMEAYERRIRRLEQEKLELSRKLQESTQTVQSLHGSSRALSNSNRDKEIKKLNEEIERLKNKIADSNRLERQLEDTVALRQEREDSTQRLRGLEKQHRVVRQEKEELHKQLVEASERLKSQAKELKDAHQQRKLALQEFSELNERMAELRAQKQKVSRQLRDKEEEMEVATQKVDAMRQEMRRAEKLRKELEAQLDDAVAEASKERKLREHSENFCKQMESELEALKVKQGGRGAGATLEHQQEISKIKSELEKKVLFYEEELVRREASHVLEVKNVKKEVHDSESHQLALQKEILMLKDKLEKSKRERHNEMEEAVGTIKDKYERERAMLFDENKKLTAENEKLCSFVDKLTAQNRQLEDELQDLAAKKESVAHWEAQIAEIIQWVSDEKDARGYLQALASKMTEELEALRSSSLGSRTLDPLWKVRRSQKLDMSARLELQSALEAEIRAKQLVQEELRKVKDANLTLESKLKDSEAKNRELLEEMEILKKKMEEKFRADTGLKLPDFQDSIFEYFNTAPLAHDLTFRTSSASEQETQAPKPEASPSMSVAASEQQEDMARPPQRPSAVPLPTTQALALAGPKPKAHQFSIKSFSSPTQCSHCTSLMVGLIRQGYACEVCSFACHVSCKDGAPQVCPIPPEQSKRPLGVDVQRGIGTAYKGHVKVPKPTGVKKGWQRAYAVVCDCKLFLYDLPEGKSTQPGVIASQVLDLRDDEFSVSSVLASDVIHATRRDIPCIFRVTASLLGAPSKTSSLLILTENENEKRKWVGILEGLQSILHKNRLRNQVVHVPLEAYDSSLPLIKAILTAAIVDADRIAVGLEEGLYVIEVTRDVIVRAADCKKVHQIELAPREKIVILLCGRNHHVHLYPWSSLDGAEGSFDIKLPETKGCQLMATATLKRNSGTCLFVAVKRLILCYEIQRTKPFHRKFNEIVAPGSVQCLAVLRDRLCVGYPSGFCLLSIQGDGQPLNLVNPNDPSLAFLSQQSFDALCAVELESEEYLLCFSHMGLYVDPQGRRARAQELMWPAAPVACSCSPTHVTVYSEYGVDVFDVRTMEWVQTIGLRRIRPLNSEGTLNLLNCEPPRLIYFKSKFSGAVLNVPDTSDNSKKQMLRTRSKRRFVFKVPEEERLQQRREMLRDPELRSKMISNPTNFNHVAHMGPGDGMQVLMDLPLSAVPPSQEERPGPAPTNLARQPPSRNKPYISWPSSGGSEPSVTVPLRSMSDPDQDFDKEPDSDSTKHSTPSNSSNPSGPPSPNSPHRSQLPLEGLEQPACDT
T1 sequence (Q15418 whole entry): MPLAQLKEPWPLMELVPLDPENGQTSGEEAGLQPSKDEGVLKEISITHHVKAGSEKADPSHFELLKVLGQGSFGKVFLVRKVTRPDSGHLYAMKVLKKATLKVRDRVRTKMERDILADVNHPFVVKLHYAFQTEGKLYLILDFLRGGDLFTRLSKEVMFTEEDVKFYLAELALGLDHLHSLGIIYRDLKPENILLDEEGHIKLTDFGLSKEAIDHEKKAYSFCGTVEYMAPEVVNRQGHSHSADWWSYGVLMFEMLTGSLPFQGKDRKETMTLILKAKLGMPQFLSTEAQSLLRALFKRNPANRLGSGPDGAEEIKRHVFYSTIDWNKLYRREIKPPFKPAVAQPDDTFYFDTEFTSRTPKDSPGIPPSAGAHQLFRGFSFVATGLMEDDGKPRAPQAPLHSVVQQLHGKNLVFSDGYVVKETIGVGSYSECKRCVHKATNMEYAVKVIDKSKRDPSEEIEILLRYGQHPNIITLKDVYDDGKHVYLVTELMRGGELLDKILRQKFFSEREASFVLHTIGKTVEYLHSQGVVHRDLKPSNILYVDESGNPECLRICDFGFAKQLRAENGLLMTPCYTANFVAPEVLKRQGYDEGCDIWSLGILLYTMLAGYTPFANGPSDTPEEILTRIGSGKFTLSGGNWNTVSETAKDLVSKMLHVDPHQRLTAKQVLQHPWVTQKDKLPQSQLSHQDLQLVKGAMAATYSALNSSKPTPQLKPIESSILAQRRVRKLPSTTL
T5 sequence (Q15208 whole entry): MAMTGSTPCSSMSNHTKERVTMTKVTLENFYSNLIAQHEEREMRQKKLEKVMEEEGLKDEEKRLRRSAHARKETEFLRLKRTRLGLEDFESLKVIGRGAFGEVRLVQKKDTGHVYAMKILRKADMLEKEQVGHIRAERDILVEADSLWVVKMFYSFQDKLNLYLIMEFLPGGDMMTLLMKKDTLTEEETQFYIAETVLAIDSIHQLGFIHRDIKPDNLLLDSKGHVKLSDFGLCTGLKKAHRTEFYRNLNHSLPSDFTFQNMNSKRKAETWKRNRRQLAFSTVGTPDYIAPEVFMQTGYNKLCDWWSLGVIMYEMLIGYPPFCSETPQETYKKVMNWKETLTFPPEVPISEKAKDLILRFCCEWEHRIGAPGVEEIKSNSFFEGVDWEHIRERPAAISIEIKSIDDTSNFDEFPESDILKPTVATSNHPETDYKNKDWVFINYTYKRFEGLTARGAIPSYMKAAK

Q: For `CC#CC(=O)N1CC[C@@H](n2c(=O)n(-c3ccc(Oc4ccccc4)cc3)c3c(N)ncnc32)C1` [Tirabrutinib], which remaining binding at 0.3 µM [1, 3] is on record?
A: 88%

Q: What about the remaining binding at 0.3 µM (EGFR(S752-I759del); [3]) of the same molecule?
A: 96%

Q: What about the remaining binding at 0.3 µM (MAK; [3]) of the same molecule?
A: 94%

Q: What about the remaining binding at 0.3 µM (EGFR(E746-A750del); [3]) of the same molecule?
A: 100%

Q: Which results are given for `C=CC(=O)N1CCC[C@@H](n2nc(-c3ccc(Oc4ccccc4)cc3)c3c(N)ncnc32)C1` [Ibrutinib]?
A: remaining binding at 0.3 µM (NEK9; [4]): 94%; remaining binding at 0.3 µM (STK36; [4]): 71%; remaining binding at 0.3 µM (PDPK1; [4]): 99%; remaining binding at 0.3 µM (MYO3A; [4]): 96%

Q: What does the source list for `C=CC(=O)N1CCC([C@@H]2CCNc3c(C(N)=O)c(-c4ccc(Oc5ccccc5)cc4)nn32)CC1` [Zanubrutinib]?
A: remaining binding at 0.3 µM (PIK3C2B; [5]): 62%; remaining binding at 0.3 µM (PKAC-alpha; [5]): 99%; remaining binding at 0.3 µM (CDKL1; [5]): 82%; remaining binding at 0.3 µM (JNK2; [5]): 100%; remaining binding at 0.3 µM (PRKCE; [5]): 100%; remaining binding at 0.3 µM (GRK7; [5]): 100%; remaining binding at 0.3 µM (MRCKB; [5]): 90%; remaining binding at 0.3 µM (PDPK1; [5]): 100%; remaining binding at 0.3 µM (NDR1; [5]): 97%; remaining binding at 0.3 µM (EPHA7; [5]): 97%; remaining binding at 0.3 µM [1, 5]: 92%; remaining binding at 0.3 µM [2, 5]: 85%; remaining binding at 0.3 µM (MAP4K5; [5]): 98%; remaining binding at 0.3 µM (PAK4; [5]): 85%; remaining binding at 0.3 µM (TBK1; [5]): 93%; remaining binding at 0.3 µM (MAK; [5]): 100%; remaining binding at 0.3 µM (PIP5K1A; [5]): 92%; remaining binding at 0.3 µM (PIK3CA; [5]): 57%

Q: Which results are given for `CC#CC(=O)N1CCC[C@H]1c1nc(-c2ccc(C(=O)Nc3ccccn3)cc2)c2c(N)nccn12` [Acalabrutinib]?
A: remaining binding at 0.3 µM (NEK9; [6]): 82%; remaining binding at 0.3 µM (PIK3C2B; [6]): 93%; remaining binding at 0.3 µM (PKAC-alpha; [6]): 99%; remaining binding at 0.3 µM (CDKL1; [6]): 93%; remaining binding at 0.3 µM (STK36; [6]): 90%; remaining binding at 0.3 µM (JNK2; [6]): 95%; remaining binding at 0.3 µM (PRKCE; [6]): 96%; remaining binding at 0.3 µM (GRK7; [6]): 74%; remaining binding at 0.3 µM (MRCKB; [6]): 93%; remaining binding at 0.3 µM (NDR1; [6]): 97%; remaining binding at 0.3 µM (MYO3A; [6]): 75%; remaining binding at 0.3 µM (EPHA7; [6]): 99%; remaining binding at 0.3 µM [2, 6]: 90%; remaining binding at 0.3 µM (MAP4K5; [6]): 90%; remaining binding at 0.3 µM (PAK4; [6]): 93%; remaining binding at 0.3 µM (EGFR(S752-I759del); [6]): 97%; remaining binding at 0.3 µM (TBK1; [6]): 91%; remaining binding at 0.3 µM (EGFR(E746-A750del); [6]): 96%; remaining binding at 0.3 µM (PIP5K1A; [6]): 83%; remaining binding at 0.3 µM (PIK3CA; [6]): 97%
